Target: T1, μ opioid receptor (MOR) (Homo sapiens, UniProt P35372)
T1 construct: expressed in transfected cells
Assay: cell-based
Assay type: cell-based
Conditions: not given

T1 sequence (P35372 whole entry): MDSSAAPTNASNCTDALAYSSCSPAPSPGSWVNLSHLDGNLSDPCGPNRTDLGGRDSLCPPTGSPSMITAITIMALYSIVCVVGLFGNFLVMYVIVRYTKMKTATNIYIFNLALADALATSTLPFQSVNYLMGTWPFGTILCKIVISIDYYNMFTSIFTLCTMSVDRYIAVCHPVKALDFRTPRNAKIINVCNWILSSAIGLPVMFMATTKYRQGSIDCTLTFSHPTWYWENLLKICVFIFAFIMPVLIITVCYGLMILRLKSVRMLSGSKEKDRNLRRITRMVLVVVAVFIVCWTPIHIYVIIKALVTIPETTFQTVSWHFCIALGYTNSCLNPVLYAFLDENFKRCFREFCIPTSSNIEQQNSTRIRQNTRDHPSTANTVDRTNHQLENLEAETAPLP

SMILES | Selectivity μ/κ
COC(=O)[C@@H]1C[C@H](NC(=O)c2ccccc2)C(=O)[C@H]2[C@@]1(C)CC[C@H]1C(=O)O[C@H](c3ccoc3)C[C@]21C [Compound 3, reference compound] | >3 000

Same assay, conditions: EC50

SMILES | EC50 [nM]
COC(=O)[C@@H]1C=C(OC(=O)c2ccc(O)cc2)C(=O)[C@H]2[C@@]1(C)CC[C@H]1C(=O)O[C@H](c3ccoc3)C[C@]21C [Table 3 Entry 3, (2S,4aR,6aR,7R,10aR,10bR)-Methyl 2-(furan-3-yl)-9-((4-hydroxybenzoyl)oxy)-6a,10b-dimethyl-4,10-dioxo-2,4,4a,5,6,6a,7,10,10a,10b-decahydro-1H-benzo[f]isochromene-7-carboxylate] | 0.83 ± 0.04
COC(=O)[C@@H]1C=C(OC(=O)/C=C/c2ccccc2)C(=O)[C@H]2[C@@]1(C)CC[C@H]1C(=O)O[C@H](c3ccoc3)C[C@]21C [Table 3 Entry 6, (2S,4aR,6aR,7R,10aR,10bR)-Methyl 9-(cinnamoyloxy)-2-(furan-3-yl)-6a,10b-dimethyl-4,10-dioxo-2,4,4a,5,6,6a,7,10,10a,10b-decahydro-1Hbenzo[f]isochromene-7-carboxylate] | 30 ± 10
COC(=O)[C@@H]1C=C(OC(=O)CCc2ccccc2)C(=O)[C@H]2[C@@]1(C)CC[C@H]1C(=O)O[C@H](c3ccoc3)C[C@]21C [Table 3 Entry 5, (2S,4aR,6aR,7R,10 aR,10bR)-Methyl 2-(furan-3-yl)-6a,10bdimethyl-4,10-dioxo-9-((3-phenylpropanoyl)oxy)-2,4,4a,5,6,6a,7,10,10a,10b-decahydro-1H-benzo[f]isochromene-7-carboxylate] | 500 ± 200
COC(=O)[C@@H]1C=C(OC(=O)c2cncnc2)C(=O)[C@H]2[C@@]1(C)CC[C@H]1C(=O)O[C@H](c3ccoc3)C[C@]21C [Table 3 Entry 11, (2S,4aR,6aR,7R,10aR,10bR)-2-(Furan-3-yl)-7-(methoxycarbonyl)-6a,10b-dimethyl-4,10-dioxo-2,4,4a,5,6,6a,7,10,10a,10b-decahydro-1H-benzo[f]isochromen-9-yl pyrimidine-5-carboxylate] | 6 ± 1

Same assay, conditions: EC50 ± SEM μ

SMILES | EC50 [nM]
COC(=O)[C@@H]1C[C@H](NC(=O)c2ccccc2)C(=O)[C@H]2[C@@]1(C)CC[C@H]1C(=O)O[C@H](c3ccoc3)C[C@]21C [Compound 3, reference compound] | 3 ± 0.4

Same assay, conditions: Series 1 EC50

SMILES | EC50 [nM]
COC(=O)[C@@H]1C[C@H](OC(=O)c2cccc(F)c2)C(=O)[C@H]2[C@@]1(C)CC[C@H]1C(=O)O[C@H](c3ccoc3)C[C@]21C [Series 1 Entry 9, (2S,4aR,6aR,7R,9S,10aS,10bR)-Methyl 9-((3-fluorobenzoyl)oxy)-2-(furan-3-yl)-6a,10b-dimethyl-4,10-dioxododecahydro-1H-benzo[f]isochromene-7-carboxylate] | 460 ± 80
COC(=O)[C@@H]1C[C@H](OC(=O)c2ccccn2)C(=O)[C@H]2[C@@]1(C)CC[C@H]1C(=O)O[C@H](c3ccoc3)C[C@]21C [Series 1 Entry 17, (2S,4aR,6aR,7R,9S,10aS,10bR)-2-(furan-3-yl)-7-(methoxycarbonyl)-6a,10b-dimethyl-4,10-dioxododecahydro-2H-benzo[f]isochromen-9-yl picolinate] | > 50000
COC(=O)[C@@H]1C[C@H](OC(=O)c2ccc(C)cc2)C(=O)[C@H]2[C@@]1(C)CC[C@H]1C(=O)O[C@H](c3ccoc3)C[C@]21C [Series 1 Entry 13, (2S,4aR,6aR,7R,9S,10aS,10bR)-Methyl 2-(furan-3-yl)-6a,10b-dimethyl-9-((4-methylbenzoyl)oxy)-4,10-dioxododecahydro-1H-benzo[f]isochromene-7-carboxylate] | 430 ± 10
COC(=O)[C@@H]1C[C@H](OC(=O)c2cccc(OC)c2)C(=O)[C@H]2[C@@]1(C)CC[C@H]1C(=O)O[C@H](c3ccoc3)C[C@]21C [Series 1 Entry 15] | 330 ± 20
COC(=O)[C@@H]1C[C@H](OC(=O)c2ccccc2Cl)C(=O)[C@H]2[C@@]1(C)CC[C@H]1C(=O)O[C@H](c3ccoc3)C[C@]21C [Series 1 Entry 5, (2S,4aR,6aR,7R,9S,10aS,10bR)-Methyl 9-((2-chlorobenzoyl)oxy)-2-(furan-3-yl)-6a,10b-dimethyl-4,10-dioxododecahydro-1H-benzo[f]isochromene-7-carboxylate] | 3400 ± 200
COC(=O)[C@@H]1C[C@H](OC(=O)c2ccncc2)C(=O)[C@H]2[C@@]1(C)CC[C@H]1C(=O)O[C@H](c3ccoc3)C[C@]21C [Series 1 Entry 19, (2S,4aR,6aR,7R,9S,10aS,10bR)-2-(furan-3-yl)-7-(methoxycarbonyl)-6a,10b-dimethyl-4,10-dioxododecahydro-2H-benzo[f]isochromen-9-yl isonicotinate] | 340 ± 10
COC(=O)[C@@H]1C[C@H](OC(=O)c2cccnc2)C(=O)[C@H]2[C@@]1(C)CC[C@H]1C(=O)O[C@H](c3ccoc3)C[C@]21C [Series 1 Entry 18] | 240 ± 20

Same assay, conditions: Series 2 EC50

SMILES | EC50 [nM]
COC(=O)[C@@H]1C=C(OC(=O)c2cccc(F)c2)C(=O)[C@H]2[C@@]1(C)CC[C@H]1C(=O)O[C@H](c3ccoc3)C[C@]21C [Series 2 Entry 9, (2S,4aR,6aR,7R,10aR,10bR)-Methyl 9-((3-fluorobenzoyl)oxy)-2-(furan-3-yl)-6a,10b-dimethyl-4,10-dioxo-2,4,4a,5,6,6a,7,10,10a,10b-decahydro-1H-benzo[f]isochromene-7-carboxylate] | 15 ± 2
COC(=O)[C@@H]1C=C(OC(=O)c2ccccc2[N+](=O)[O-])C(=O)[C@H]2[C@@]1(C)CC[C@H]1C(=O)O[C@H](c3ccoc3)C[C@]21C [Series 2 Entry 2, (2S,4aR,6aR,7R,10aR,10bR)-Methyl 2-(furan-3-yl)-6a,10b-dimethyl-9-((2-nitrobenzoyl)oxy)-4,10-dioxo-2,4,4a,5,6,6a,7,10,10a-decahydro-1H-benzo[f]isochromene-7-carboxylate] | 1900 ± 600
COC(=O)[C@@H]1C=C(OC(=O)c2ccccc2F)C(=O)[C@H]2[C@@]1(C)CC[C@H]1C(=O)O[C@H](c3ccoc3)C[C@]21C [Series 2 Entry 8] | 4.7 ± 0.4
COC(=O)[C@@H]1C=C(OC(=O)c2ccncc2)C(=O)[C@H]2[C@@]1(C)CC[C@H]1C(=O)O[C@H](c3ccoc3)C[C@]21C [Series 2 Entry 19, (2S,4aR,6aR,7R,10aR,10bR)-2-(Furan-3-yl)-7-(methoxycarbonyl)-6a,10b-dimethyl-4,10-dioxo-2,4,4a,5,6,6a,7,10,10a,10bdecahydro-1H-benzo[f]isochromen-9-yl isonicotinate] | 6 ± 1
COC(=O)[C@@H]1C=C(OC(=O)c2cc3ccccc3o2)C(=O)[C@H]2[C@@]1(C)CC[C@H]1C(=O)O[C@H](c3ccoc3)C[C@]21C [Series 2 Entry 22, (2S,4aR,6aR,7R,10aR,10bR)-Methyl 9-((benzofuran-2-carbonyl)oxy)-2-(furan-3-yl)-6a,10-dimethyl-4,10-dioxo-2,4,4a,5,6,6a,7,10,10a,10bdecahydro-1H-benzo[f]isochromene-7-carboxylate] | 31 ± 9
COC(=O)[C@@H]1C=C(OC(=O)c2cccc(Cl)c2)C(=O)[C@H]2[C@@]1(C)CC[C@H]1C(=O)O[C@H](c3ccoc3)C[C@]21C [Series 2 Entry 6, (2S,4aR,6aR,7R,10aR,10bR)-Methyl 9-((3-chlorobenzoyl)oxy)-2-(furan-3-yl)-6a,10b-dimethyl-4,10-dioxo-2,4,4a,5,6,6a,7,10,10a,10b-decahydro-1H-benzo[f]isochromene-7-carboxylate] | 250 ± 30
COC(=O)[C@@H]1C=C(OC(=O)c2ccccc2C)C(=O)[C@H]2[C@@]1(C)CC[C@H]1C(=O)O[C@H](c3ccoc3)C[C@]21C [Series 2 Entry 11, (2S,4aR,6aR,7R,10aR,10bR)-Methyl 2-(furan-3-yl)-6a,10b-dimethyl-9-((2-methylbenzoyl)oxy)-4,10-dioxo-2,4,4a,5,6,6a,7,10,10a,10b-decahydro-1H-benzo[f]isochromene-7-carboxylate] | 240 ± 40
COC(=O)[C@@H]1C=C(OC(=O)c2ccc(Cl)cc2)C(=O)[C@H]2[C@@]1(C)CC[C@H]1C(=O)O[C@H](c3ccoc3)C[C@]21C [Series 2 Entry 7, (2S,4aR,6aR,7R,10aR,10bR)-Methyl 9-((4-chlorobenzoyl)oxy)-2-(furan-3-yl)-6a,10b-dimethyl-4,10-dioxo-2,4,4a,5,6,6a,7,10,10a,10b-decahydro-1H-benzo[f]isochromene-7-carboxylate] | 29 ± 8

Same assay, conditions: read-out: Series 2 EC50

SMILES | EC50 [nM]
COC(=O)[C@@H]1C=C(OC(=O)c2ccc([N+](=O)[O-])cc2)C(=O)[C@H]2[C@@]1(C)CC[C@H]1C(=O)O[C@H](c3ccoc3)C[C@]21C [Series 2 Entry 4, (2S,4aR,6aR,7R,10aR,10bR)-Methyl 2-(furan-3-yl)-6a,10b-dimethyl-9-((4-nitrobenzoyl)oxy)-4,10-dioxo-2,4,4a,5,6,6a,7,10,10a,10b-decahydro-1H-benzo[f]isochromene-7-carboxylate] | 31 ± 2
COC(=O)[C@@H]1C=C(OC(=O)c2cccc(OC)c2)C(=O)[C@H]2[C@@]1(C)CC[C@H]1C(=O)O[C@H](c3ccoc3)C[C@]21C [Series 2 Entry 15, (2S,4aR,6aR,7R,10aR,10bR)-Methyl 2-(furan-3-yl)-9-((3-methoxybenzoyl)oxy)-6a,10b-dimethyl-4,10-dioxo-2,4,4a,5,6,6a,7,10,10a,10b-decahydro-1H-benzo[f]isochromene-7-carboxylate] | 11 ± 2
COC(=O)[C@@H]1C=C(OC(=O)c2ccc(C)cc2)C(=O)[C@H]2[C@@]1(C)CC[C@H]1C(=O)O[C@H](c3ccoc3)C[C@]21C [Series 2 Entry 13, (2S,4aR,6aR,7R,10aR,10bR)-Methyl 2-(furan-3-yl)-6a,10b-dimethyl-9-((4-methylbenzoyl)oxy)-4,10-dioxo-2,4,4a,5,6a,7,10,10a,10b-decahydro-1H-benzo[f]isochromene-7-carboxylate] | 21.8 ± 0.3
COC(=O)[C@@H]1C=C(OC(=O)c2ccc(OC)cc2)C(=O)[C@H]2[C@@]1(C)CC[C@H]1C(=O)O[C@H](c3ccoc3)C[C@]21C [Series 2 Entry 16, (2S,4aR,6aR,7R,10aR,10bR)-Methyl 2-(furan-3-yl)-9-((4-methoxybenzoyl)oxy)-6a,10b-dimethyl-4,10-dioxo-2,4,4a,5,6,6a,7,10,10a,10b-decahydro-1H-benzo[f]isochromene-7-carboxylate] | 8 ± 3

System: not given
Assay: not given
Conditions: not given

SMILES | melting point [°C]
COC(=O)[C@@H]1C=C(OC(=O)c2ccc(O)cc2)C(=O)[C@H]2[C@@]1(C)CC[C@H]1C(=O)O[C@H](c3ccoc3)C[C@]21C [Table 3 Entry 3, (2S,4aR,6aR,7R,10aR,10bR)-Methyl 2-(furan-3-yl)-9-((4-hydroxybenzoyl)oxy)-6a,10b-dimethyl-4,10-dioxo-2,4,4a,5,6,6a,7,10,10a,10b-decahydro-1H-benzo[f]isochromene-7-carboxylate] | 136 to 139

Target: T2, κ opioid receptor (KOR) (Homo sapiens, UniProt P41145)
T2 construct: expressed in transfected cells
T2 sequence (P41145 whole entry): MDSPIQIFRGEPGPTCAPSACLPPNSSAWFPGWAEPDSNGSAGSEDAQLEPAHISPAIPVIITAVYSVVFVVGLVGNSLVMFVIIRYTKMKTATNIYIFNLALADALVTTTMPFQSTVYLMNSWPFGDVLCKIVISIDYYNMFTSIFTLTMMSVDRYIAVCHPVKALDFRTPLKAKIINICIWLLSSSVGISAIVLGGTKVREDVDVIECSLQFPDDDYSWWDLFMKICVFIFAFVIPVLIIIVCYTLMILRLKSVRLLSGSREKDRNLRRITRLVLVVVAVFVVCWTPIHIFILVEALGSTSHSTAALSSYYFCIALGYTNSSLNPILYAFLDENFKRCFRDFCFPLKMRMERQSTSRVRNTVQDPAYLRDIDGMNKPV
Assay: cell-based
Assay type: cell-based
Conditions: not given

SMILES | EC50 [nM]
COC(=O)[C@@H]1C[C@H](NC(=O)c2ccccc2)C(=O)[C@H]2[C@@]1(C)CC[C@H]1C(=O)O[C@H](c3ccoc3)C[C@]21C [Compound 3, reference compound] | > 10000

Reference: US10125129B2 (priority 2016, dated 2018)
